Measurements as given in US8471063B2, “Michael systems as transglutaminase inhibitors” (Zedira GmbH, priority 2006, dated 2013).
Where a SMILES comes first, the peptide text is derived from it. [ ]: non-standard residue; d: D form. The star is where a group is joined. Nle(5E-ene,6-CO2Et) = CCOC(=O)/C=C/CC[C@H](N)C(=O)O; Cbz = O=C(OCc1ccccc1)*

Experiments:
[1] = molecular target: T1, recombinant human tissue transglutaminase (His6-rh-TG2) (Homo sapiens, UniProt P21980); assay: Inactivation of human tissue transglutaminase, fluorescence assay, IC50; assay type: biochemical; settings: Table 1; 5 min preincubation, 37° C.
T1 sequence (P21980 1-687): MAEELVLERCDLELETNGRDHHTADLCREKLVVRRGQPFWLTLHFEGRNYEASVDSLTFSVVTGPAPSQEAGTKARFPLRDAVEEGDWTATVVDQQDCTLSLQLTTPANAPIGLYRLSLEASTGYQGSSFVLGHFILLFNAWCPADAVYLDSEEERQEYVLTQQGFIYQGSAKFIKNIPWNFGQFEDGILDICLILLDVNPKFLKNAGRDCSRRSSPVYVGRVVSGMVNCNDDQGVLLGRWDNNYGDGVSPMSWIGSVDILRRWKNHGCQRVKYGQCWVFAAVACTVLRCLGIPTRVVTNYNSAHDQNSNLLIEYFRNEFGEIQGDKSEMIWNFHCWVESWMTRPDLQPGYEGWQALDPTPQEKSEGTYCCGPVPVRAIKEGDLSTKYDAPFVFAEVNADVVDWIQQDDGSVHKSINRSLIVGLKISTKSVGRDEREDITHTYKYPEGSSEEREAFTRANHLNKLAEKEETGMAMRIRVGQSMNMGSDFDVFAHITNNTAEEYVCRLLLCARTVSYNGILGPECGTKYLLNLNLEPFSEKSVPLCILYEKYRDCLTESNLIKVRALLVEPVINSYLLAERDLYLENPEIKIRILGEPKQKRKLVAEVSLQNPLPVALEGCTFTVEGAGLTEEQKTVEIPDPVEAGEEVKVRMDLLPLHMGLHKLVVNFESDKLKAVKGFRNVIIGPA
Procedure, shortened: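 10 μg His6-rh-TG2 added to a pH 7.5 Tris/CaCl2/DTT/PEG8000 assay solution holding inhibitor, 5.56 mM glycine methyl ester and 50 μM Abz-APE(CAD-DNP)QEA-OH (pre-addition levels); 5 min at 37 °C before reading. Fluorescence λexc 313/λem 418 nm over 15 min; activity from slope, IC50 relative to DMSO control.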

[2] = molecular target: T2, FXIII (Homo sapiens, UniProt P00488); assay: Transglutaminase inhibition, IC50 at FXIII; assay type: biochemical; settings: Table 1
T2 sequence (P00488 1-732): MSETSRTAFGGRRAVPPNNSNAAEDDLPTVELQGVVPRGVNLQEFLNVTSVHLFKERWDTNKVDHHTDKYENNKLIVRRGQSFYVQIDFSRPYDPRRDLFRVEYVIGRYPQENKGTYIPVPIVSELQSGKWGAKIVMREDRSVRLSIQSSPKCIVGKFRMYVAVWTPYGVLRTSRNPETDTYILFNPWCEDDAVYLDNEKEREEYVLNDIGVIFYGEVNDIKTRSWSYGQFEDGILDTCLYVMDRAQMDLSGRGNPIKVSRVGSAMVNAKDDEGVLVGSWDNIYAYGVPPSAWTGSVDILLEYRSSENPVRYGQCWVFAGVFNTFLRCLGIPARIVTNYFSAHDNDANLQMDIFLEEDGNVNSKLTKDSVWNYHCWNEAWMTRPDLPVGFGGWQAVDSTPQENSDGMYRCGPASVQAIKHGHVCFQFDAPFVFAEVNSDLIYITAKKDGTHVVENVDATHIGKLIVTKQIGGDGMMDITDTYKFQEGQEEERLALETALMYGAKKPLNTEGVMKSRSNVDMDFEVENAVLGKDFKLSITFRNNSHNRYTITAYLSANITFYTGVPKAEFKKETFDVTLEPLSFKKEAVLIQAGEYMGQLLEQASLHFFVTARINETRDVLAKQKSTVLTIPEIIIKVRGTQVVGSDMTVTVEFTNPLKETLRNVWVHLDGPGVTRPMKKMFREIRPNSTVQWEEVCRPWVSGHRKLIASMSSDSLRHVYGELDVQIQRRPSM

[3] = system: biopsies from the lower duodenum of patients suffering from coeliac disease; assay: Biopsy example 1: anti-TG2 ELISA of PT gliadin stimulated duodenal biopsies; assay type: cell-based, human; settings: 5 μM inhibitor, 30 min preincubation, then PT gliadin 1 mg/ml, 48 hrs; medium control 1.285, PT gliadin alone 2.144
Method: (§1) Biopsies with a diameter of about 2 mm were stored for a maximum of 30 min in ice-cold PBS after removal from the lower duodenum of patients suffering from coeliac disease. The single biopsies were transferred into the cavities of a 24-well cell culture dish and coated with 500 μl of Trowell T8 medium.
(§2) For preincubation, the transglutaminase inhibitor (1) in a final concentration of 5 μM was added to the biopsies and they were incubated for 30 min at a temperature of 37° C. in the incubator under gassing with CO2 (5%). Subsequently, stimulation with gliadin after peptic-tryptic digest (PT gliadin) used in a final concentration of 1 mg/ml was performed. PT gliadin was produced as described by Wieser and Belitz (Wieser H and Belitz HD (1992), Z Lebenm Unters Forsch 194: 229-234). The treatment with the proteases pepsin and trypsin simulates the digestion in the gastrointestinal tract. Thus the resulting gliadin peptides correspond to those which occur in the duodenum after the intake of cereal protein. The biopsies were then incubated for another 48 hrs in the incubator under the above conditions.
Controls were incubated with inhibitor-free medium and without or respectively with PT gliadin.
After 48 hrs, 50 μl samples were taken and analyzed by means of an anti-TG2 ELISA kit.

[4] = system: biopsies from the lower duodenum of patients suffering from coeliac disease; assay: Biopsy example 2: interferon-γ ELISA of PT gliadin stimulated duodenal biopsies; assay type: cell-based, human; settings: 5 μM inhibitor preincubation, PT gliadin stimulation
Method: as §1
as §2, with “Thus the resulting gliadin peptides correspond to those which occur in the duodenum after the intake of cereal protein. The biopsies were then incubated for another 48 hrs in the incubator under the above conditions.” left out
Biopsies were cultivated and treated as described in biopsy example 1. After 24 and 48 hrs, 50 μl samples were taken both from the biopsy stimulated with PT gliadin and from the biopsy preincubated with inhibitor (1), which subsequently was also stimulated with PT gliadin and the samples were analyzed by means of an interferon-γ Elisa. A very high interferon-γ value of 653 pg/ml could already be measured in the biopsy stimulated with PT gliadin after 24 hrs, which value increased to 1177 pg/ml after 48 hrs.

[5] = system: dog (Irish setter); assay: In-vivo experiment in the Irish setter fed a wheat-containing diet
Method: A 5 weeks old dog (Irish setter) was fed with a wheat-containing diet. […] By a jejunal biopsy a partial degradation of the intestinal villi and an increased number of intraepithelial lymphocytes were found.
This dog was fed before each meal with 75 mg/kg body weight transglutaminase inhibitor (1) in a acid-stable formulation. In the following a decrease of the diarrhea and an increase in body weight were observed.

[6] = 75 mg/kg before each meal, after two months
[7] = 75 mg/kg body weight before each meal, acid-stable formulation

## CCOC(=O)/C=C/CC[C@H](NC(=O)OCc1ccccc1)C(=O)N[C@H](C(=O)N1CCC[C@H]1C(=O)N[C@@H](CC(C)C)C(=O)OC)C(C)C [Compound 1, N^α-benzyloxycarbonyl-{[(E)-(L)-6-amino-hept-2-ene-dicarboxylic acid]-1-ethanoyl}-L-valinyl-L-prolinyl-L-leucine methyl ester] (Cbz-[Nle(5E-ene,6-CO2Et)]VPL-OMe)
[1]
  IC50: 30 nM
[2]
  IC50: > 50 µM
[3]
  OD450 in the anti-TG2 ELISA (antibody concentration): 1.401
[4]; after 24 hrs, PT gliadin alone 653 pg/ml
  interferon-γ value: 86 pg/mL
[4]; after 48 hrs, PT gliadin alone 1177 pg/ml
  interferon-γ value: 426 pg/mL
[5]; [6]
  length of the intestinal villi (biopsy): normal length
  number of intraepithelial lymphocytes (biopsy): significantly reduced
[5]; [7]
  body weight: increase
  diarrhea: decrease
